Measured values from patent publication US9102591B2, “Benzamides” (H. Lundbeck A/S, priority 2012, dated 2015).
Where two headings read alike, the source gives them in different places.

Target: P2X7 receptor (Homo sapiens (Human), UniProt Q99572)
Experiment: P2X7 FLIPR assay (BzATP-stimulated calcium fluorescence, antagonist IC50)
Type: cell-based
Method: This example illustrates representative assays for use in evaluating the test compounds for antagonist activity. Compounds of the present invention were tested in vitro for their ability to act as antagonists to the P2X7receptor. […]
Cells were plated to cell density of approximately 15,000 cells/well in 384-well assay plates (50 μl/well) with 1.5% low serum media (DMEM, 1.5% FBS, 1% L-glut (2 mM), 10 mM HUES, 1% P/S). Cells were plated 24 hours prior to assay. Cells expressing human, rat or mouse P2X7 receptor were assayed in the following manner.
Fluo-4 NW dye mix (Molecular Probes, Inc., Eugene, Oreg., USA) was prepared in buffer (see manufacturer's instructions). Cell plates were removed from the 37° C. incubator, the media discarded and then 30 μL of dye was added to each well. Plates were placed in the 37° C., non-CO2 incubator for 30 minutes and then room temperature for 30 minutes.
Compound mixtures (A) were added to assay plates containing cells and placed at room temperature for 30 minutes, then BzATP (B) was added. Fluorescence was read using the Tetra FLIPR® (Molecular Devices, Inc., Sunnyvale, Calif., USA) and IC50 values were calculated by standard methods to determine antagonist activity.

Chain of P2X7 receptor (Q99572 whole entry): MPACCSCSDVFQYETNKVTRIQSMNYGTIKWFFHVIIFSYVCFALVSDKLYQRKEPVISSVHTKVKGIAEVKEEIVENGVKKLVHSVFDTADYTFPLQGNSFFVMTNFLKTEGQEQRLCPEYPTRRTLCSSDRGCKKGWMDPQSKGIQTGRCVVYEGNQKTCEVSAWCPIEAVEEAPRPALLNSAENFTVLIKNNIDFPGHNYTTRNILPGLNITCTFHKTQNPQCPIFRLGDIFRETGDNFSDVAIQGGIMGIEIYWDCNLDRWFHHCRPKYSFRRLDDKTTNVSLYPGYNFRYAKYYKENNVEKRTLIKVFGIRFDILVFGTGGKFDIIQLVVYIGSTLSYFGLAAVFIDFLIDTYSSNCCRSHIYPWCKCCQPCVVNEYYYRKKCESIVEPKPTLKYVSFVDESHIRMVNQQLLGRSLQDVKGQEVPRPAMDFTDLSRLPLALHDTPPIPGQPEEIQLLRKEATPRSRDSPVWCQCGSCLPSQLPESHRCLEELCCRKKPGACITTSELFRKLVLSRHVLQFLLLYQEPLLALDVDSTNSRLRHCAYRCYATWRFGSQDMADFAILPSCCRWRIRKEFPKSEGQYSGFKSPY

| IC50 [nM] | Compound | also measured |
| --- | --- | --- |
| 960 | Cc1ncc(C2(C(C)NC(=O)c3cccc(Cl)c3Cl)CCC(F)(F)CC2)cn1 (stereo not shown) [2,3-dichloro-N-[1-[4,4-difluoro-1-(2-methylpyrimidin-5-yl)cyclohexyl]ethyl]benzamide] | – |
| 170 | Cc1cccc(C(=O)NCC2(c3ccc(Cl)cc3)CCOCC2)c1C [N-[4-(4-Chloro-phenyl)-tetrahydro-pyran-4-ylmethyl]-2,3-dimethyl-benzamide] | – |
| 3.2 | O=C(NCC1(c2ccc(C(F)(F)F)nc2)CCC(F)(F)CC1)c1cccc(Cl)c1F [3-chloro-N-((4,4-difluoro-1-(6-(trifluoromethyl)pyridin-3-yl)cyclohexyl)methyl)-2-fluorobenzamide] | – |
| 14 | COc1cccc(C(=O)NCC(CC2CC2)c2cnc(C(F)(F)F)nc2)c1Cl (single isomer, unassigned; (+)) [(+)2-chloro-N-[3-cyclopropyl-2-[2-(trifluoromethyl)pyrimidin] [(+)2-chloro-N-[3-cyclopropyl-2-[2-(trifluoromethyl)pyrimidin-5-yl]propyl]-3-methoxy-benzamide] | – |
| 7.1 | Cc1ncc(C(CNC(=O)c2cccc(Cl)c2Cl)CC2(C(F)(F)F)CC2)cn1 (stereo not shown) [2,3-dichloro-N-[2-(2-methylpyrimidin-5-yl)-3-[1-(trifluorome] [2,3-dichloro-N-[2-(2-methylpyrimidin-5-yl)-3-[1-(trifluoromethyl)cyclopropyl]propyl]benzamide] | – |
| 43 | O=C(NCC1(c2ccc(Cl)cc2)CCOCC1)c1cccc(Cl)c1Cl [2,3-dichloro-N-((4-(4-chlorophenyl)tetrahydro-2H-pyran-4-yl)methyl)benzamide] | – |
| 4.7 | O=C(NCC(CC1CC1)c1cnc(C(F)(F)F)nc1)c1cccc(F)c1Cl (single isomer, unassigned; (-)) [(−)2-chloro-N-[3-cyclopropyl-2-[2-(trifluoromethyl)pyrimidin] [(−)2-chloro-N-[3-cyclopropyl-2-[2-(trifluoromethyl)pyrimidin-5-yl]propyl]-3-fluoro-benzamide] | – |
| 220 | Cc1ncc(C(CNC(=O)c2c(Cl)cccc2Cl)CC2CC2)cn1 (single isomer, unassigned; (+)) [(+)2,6-dichloro-N-[3-cyclopropyl-2-(2-methylpyrimidin-5-yl)p] [(+)2,6-dichloro-N-[3-cyclopropyl-2-(2-methylpyrimidin-5-yl)propyl]benzamide] | – |
| – | COc1ccccc1C(=O)NCC(CC1CC1)c1ccc(C(F)(F)F)nc1 (single isomer, unassigned) [Example 4p, (+)—N-(3-cyclopropyl-2-(6-(trifluoromethyl)pyridin-3-yl)propyl)-2-methoxybenzamide] | IC50 (listed as (+)N-[3-cyclopropyl-2-[6-(trifluoromethyl)-3-pyridyl]propyl]-2-methoxy-benzamide): 990 nM |
| 600 | COc1ccc(C2(CNC(=O)c3cccc(C)c3C)CCCC2)cc1 [N-[1-(4-Methoxy-phenyl)-cyclopentylmethyl]-2,3-dimethyl-benzamide] | – |
| 1 | Cc1ccc(C(CNC(=O)c2cccc(Cl)c2Cl)CC(C)C)cn1 (stereo not shown) [2,3-Dichloro-N-[4-methyl-2-(6-methyl-pyridin-3-yl)-pentyl]-benzamide] | – |
| 14 | O=C(NCC1(c2ccc(F)nc2)CCC(F)(F)CC1)c1c(F)cccc1Cl [2-chloro-N-[[4,4-difluoro-1-(6-fluoro-3-pyridyl)cyclohexyl]methyl]-6-fluoro-benzamide] | – |
| 94 | O=C(NCC(CC1(C(F)(F)F)CC1)c1ccc(C2CC2)nc1)c1ccccc1Cl (stereo not shown) [2-chloro-N-[2-(6-cyclopropyl-3-pyridyl)-3-[1-(trifluoromethyl)cyclopropyl]propyl]benzamide] | – |
| 3.4 | COc1cccc(C(=O)NCC(CC2CC2)c2cnc(C(F)(F)F)nc2)c1Cl (single isomer, unassigned; (-)) [(−)2-chloro-N-[3-cyclopropyl-2-[2-(trifluoromethyl)pyrimidin] [(−)2-chloro-N-[3-cyclopropyl-2-[2-(trifluoromethyl)pyrimidin-5-yl]propyl]-3-methoxy-benzamide] | – |
| 6.7 | O=C(NCC(c1ccc(F)cc1)c1cnc(C(F)(F)F)nc1)c1c(F)cccc1Cl (single isomer, unassigned; (+)) [(+)2-chloro-6-fluoro-N-[2-(4-fluorophenyl)-2-[2-(trifluorome] [(+)2-chloro-6-fluoro-N-[2-(4-fluorophenyl)-2-[2-(trifluoromethyl)pyrimidin-5-yl]ethyl]benzamide] | – |
| – | O=C(NCC(CC1CC1)c1ccc(F)nc1)c1ccccc1Cl (single isomer, unassigned; (+)) [Example 4w, (+)-2-chloro-N-(3-cyclopropyl-2-(6-fluoropyridin-3-A)propyl)benzamide] | IC50 (listed as (+)2-chloro-N-[3-cyclopropyl-2-(6-fluoro-3-pyridyl)propyl]benzamide): 510 nM |

| IC50 [nM] | Compound | also measured |
| --- | --- | --- |
| 640 | O=C(NCC(CC1CC1)c1ccc(C(F)F)nc1)c1ccccc1Cl (single isomer, unassigned; (+)) [(+)2-chloro-N-[3-cyclopropyl-2-[6-(difluoromethyl)-3-pyridyl] [(+)2-chloro-N-[3-cyclopropyl-2-[6-(difluoromethyl)-3-pyridyl]propyl]benzamide] | – |
| 2.1 | O=C(NCC(CC1CC1)c1ccc(C(F)(F)F)nc1)c1c(F)cccc1Cl (single isomer, unassigned; (-)) [(−)2-chloro-N-[3-cyclopropyl-2-[6-(trifluoromethyl)-3-pyridy] [(−)2-chloro-N-[3-cyclopropyl-2-[6-(trifluoromethyl)-3-pyridyl]propyl]-6-fluoro-benzamide] | – |
| 660 | O=C(NCC(CC1CC1)c1ccc(C(F)(F)F)nc1)c1cccc(Cl)c1F (stereo not shown) [3-chloro-N-(3-cyclopropyl-2-(6-(trifluoromethyl)pyridin-3-yl)propyl)-2-fluorobenzamide] | – |
| – | O=C(NCC(CC1CC1)c1ccc(F)nc1)c1ccccc1Cl (single isomer, unassigned; (-)) [Example 4x, (−)-2-chloro-N-(3-cyclopropyl-2-(6-fluoropyridin-3-yl)propyl)benzamide] | IC50 (listed as (−)2-chloro-N-[3-cyclopropyl-2-(6-fluoro-3-pyridyl)propyl]benzamide): 16 nM |
| 570 | Cc1ncc(C(CNC(=O)c2ccccc2Cl)C2CCOCC2)cn1 (single isomer, unassigned; (-)) [(−)2-chloro-N-[2-(2-methylpyrimidin-5-yl)-2-tetrahydropyran-] [(−)2-chloro-N-[2-(2-methylpyrimidin-5-yl)-2-tetrahydropyran-4-yl-ethyl]benzamide] | – |
| 14 | O=C(NCC1(c2ccc(F)nc2)CCC(F)(F)CC1)c1ccccc1F [N-[4,4-Difluoro-1-(6-fluoro-pyridin-3-yl)-cyclohexylmethyl]-] [N-[4,4-Difluoro-1-(6-fluoro-pyridin-3-yl)-cyclohexylmethyl]-2-fluoro-benzamide] | – |
| 44 | O=C(NCC(c1cnc(C(F)(F)F)nc1)C1CCC(F)(F)CC1)c1cccc(F)c1Cl (single isomer, unassigned; (-)) [(−)2-chloro-N-[2-(4,4-difluorocyclohexyl)-2-[2-(trifluoromet] [(−)2-chloro-N-[2-(4,4-difluorocyclohexyl)-2-[2-(trifluoromethyl)pyrimidin-5-yl]ethyl]-3-fluoro-benzamide] | – |
| 4.5 | O=C(NCC(CC1(C(F)(F)F)CC1)c1cnc(C(F)(F)F)nc1)c1cccc(F)c1Cl (single isomer, unassigned; (+)) [(+)2-chloro-3-fluoro-N-[3-[1-(trifluoromethyl)cyclopropyl]-2] [(+)2-chloro-3-fluoro-N-[3-[1-(trifluoromethyl)cyclopropyl]-2-[2-(trifluoromethyl)pyrimidin-5-yl]propyl]benzamide] | – |
| 1.2 | O=C(NCC1(c2ccc(F)nc2)CCC(F)(F)CC1)c1cc(C(F)(F)F)ccc1Cl [2-chloro-N-[[4,4-difluoro-1-(6-fluoro-3-pyridyl)cyclohexyl]methyl]-5-(trifluoromethyl)benzamide] | – |
| 5.3 | O=C(NCC1(c2ccc(F)nc2)CCC(F)(F)CC1)c1cccc(F)c1Cl [2-chloro-N-((4,4-difluoro-1-(6-fluoropyridin-3-yl)cyclohexyl)methyl)-3-fluorobenzamide] | – |
| 1.2 | O=C(NCC1(c2ccc(C(F)(F)F)nc2)CCC(F)(F)CC1)c1cccc(Cl)c1Cl [2,3-dichloro-N-((4,4-difluoro-1-(6-(trifluoromethyl)pyridin-3-yl)cyclohexyl)methyl)benzamide] | – |
| 17 | O=C(NCC(CC1CC1)c1ccc(C(F)F)nc1)c1ccccc1Cl (single isomer, unassigned; (-)) [(−)2-chloro-N-[3-cyclopropyl-2-[6-(difluoromethyl)-3-pyridyl] [(−)2-chloro-N-[3-cyclopropyl-2-[6-(difluoromethyl)-3-pyridyl]propyl]benzamide] | – |
| 0.28 | O=C(NCC1(c2ccc(F)nc2)CCC(F)(F)CC1)c1cccc(Cl)c1Cl [2,3-dichloro-N-[[4,4-difluoro-1-(6-fluoro-3-pyridyl)cyclohexyl]methyl]benzamide] | – |
| 1.1 | O=C(NCC(c1ccc(F)cc1)c1cnc(C(F)(F)F)nc1)c1cccc(Cl)c1Cl (single isomer, unassigned; (+)) [(+)2,3-dichloro-N-[2-(4-fluorophenyl)-2-[2-(trifluoromethyl)] [(+)2,3-dichloro-N-[2-(4-fluorophenyl)-2-[2-(trifluoromethyl)pyrimidin-5-yl]ethyl]benzamide] | – |
| – | COc1ccccc1C(=O)NCC(CC1CC1)c1ccc(C(F)(F)F)nc1 (single isomer, unassigned) [Example 4o, (−)—N-(3-cyclopropyl-2-(6-(trifluoromethyl)pyridin-3-yl)propyl)-2-methoxybenzamide] | IC50 (listed as (−)N-[3-cyclopropyl-2-[6-(trifluoromethyl)-3-pyridyl]propyl]-2-methoxy-benzamide): 53 nM |
